{"source": "paper PMC10947850", "about": "(Angewandte Chemie (International ed. in English), 2024)", "test_system": "Fub7", "assay": "steady-state kinetics of aldehyde alkylation", "format": "biochemical", "details": "co-substrate O-acetyl-L-homoserine; native nucleophile; PLP enzyme", "data": [{"smiles": "CCCCCC=O", "note": "[n-hexanal]", "values": [{"measurement": "Km", "result": 11, "unit": "mM"}]}]}
